How the values were obtained:
Test in all cases: relative viability vs DMSO control (72 h) (fraction); higher = more viable cells
A204 = system: A204
Procedure, shortened: (§1)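 A 5 µM positive control and 0.1% DMSO vehicle ran alongside sarcoma cell lines seeded in 384-well plates to reach 80–90% confluence. Serially diluted compound, 2.5 µl from source plates of 10 mM to 0.0002 mM, was added after 24 h, and the plates were held 72 h at 37 °C, 5% CO2. Relative viability was worked out from ATPLite readings as percent growth averaged over up to triplicate wells. The values were rescaled so that 1 is full and 0 is none.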

G401 = system: G401
Procedure, shortened: as §1

HS729 = system: HS729
Procedure, shortened: as §1

KHOS-240S = system: KHOS-240S
Procedure, shortened: as §1

MES-SA = system: MES-SA
Procedure, shortened: as §1

RD = system: RD
Procedure, shortened: as §1

SK-ES-1 = system: SK-ES-1
Procedure, shortened: as §1

SK-LMS-1 = system: SK-LMS-1
Procedure, shortened: as §1

SW1353 = system: SW1353
Procedure, shortened: as §1

SW872 = system: SW872
Procedure, shortened: as §1

SW982 = system: SW982
Procedure, shortened: as §1

VA-ES-BJ = system: VA-ES-BJ
Procedure, shortened: as §1

N#Cc1ccnc(N2C(=O)CC[C@H]2C(=O)N(c2cncc(F)c2)[C@H](C(=O)NC2CC(F)(F)C2)c2ccccc2Cl)c1 [Ivosidenib]
Conditions | relative viability
A204, 0.00017 µM | 1.07
A204, 0.00051 µM | 1.03
A204, 0.00152 µM | 1.11
A204, 0.00457 µM | 1.06
A204, 0.01372 µM | 1.04
A204, 0.04115 µM | 1.03
A204, 0.1235 µM | 1.05
A204, 0.3704 µM | 1.015
A204, 1.111 µM | 1.06
A204, 3.333 µM | 1.03
A204, 10 µM | 0.971
G401, 0.00017 µM | 0.926
G401, 0.00051 µM | 0.927
G401, 0.00152 µM | 0.971
G401, 0.00457 µM | 1.01
G401, 0.01372 µM | 0.952
G401, 0.04115 µM | 0.934
G401, 0.1235 µM | 0.99
G401, 0.3704 µM | 0.943
G401, 1.111 µM | 0.958
G401, 3.333 µM | 0.929
G401, 10 µM | 0.896
HS729, 0.00017 µM | 0.966
HS729, 0.00051 µM | 1
HS729, 0.00152 µM | 1.01
HS729, 0.00457 µM | 1.01
HS729, 0.01372 µM | 0.998
HS729, 0.04115 µM | 0.993
HS729, 0.1235 µM | 1.01
HS729, 0.3704 µM | 1
HS729, 1.111 µM | 0.982
HS729, 3.333 µM | 0.949
HS729, 10 µM | 0.96
KHOS-240S, 0.00017 µM | 1.03
KHOS-240S, 0.00051 µM | 1.04
KHOS-240S, 0.00152 µM | 1.04
KHOS-240S, 0.00457 µM | 1.057
KHOS-240S, 0.01372 µM | 1.04
KHOS-240S, 0.04115 µM | 1.046
KHOS-240S, 0.1235 µM | 1.02
KHOS-240S, 0.3704 µM | 1.03
KHOS-240S, 1.111 µM | 1.02
KHOS-240S, 3.333 µM | 1.022
KHOS-240S, 10 µM | 0.998
MES-SA, 0.00017 µM | 0.905
MES-SA, 0.00051 µM | 0.943
MES-SA, 0.00152 µM | 0.932
MES-SA, 0.00457 µM | 0.935
MES-SA, 0.01372 µM | 0.938
MES-SA, 0.04115 µM | 0.929
MES-SA, 0.1235 µM | 0.933
MES-SA, 0.3704 µM | 0.981
MES-SA, 1.111 µM | 0.976
MES-SA, 3.333 µM | 0.925
MES-SA, 10 µM | 0.8939
RD, 0.00017 µM | 1.04
RD, 0.00051 µM | 1.02
RD, 0.00152 µM | 1.03
RD, 0.00457 µM | 1.05
RD, 0.01372 µM | 1.05
RD, 0.04115 µM | 1.06
RD, 0.1235 µM | 1.07
RD, 0.3704 µM | 1.03
RD, 1.111 µM | 1.04
RD, 3.333 µM | 1.02
RD, 10 µM | 0.944
SK-ES-1, 0.00017 µM | 0.941
SK-ES-1, 0.00051 µM | 0.962
SK-ES-1, 0.00152 µM | 0.984
SK-ES-1, 0.00457 µM | 1.02
SK-ES-1, 0.01372 µM | 0.988
SK-ES-1, 0.04115 µM | 1.01
SK-ES-1, 0.1235 µM | 1
SK-ES-1, 0.3704 µM | 0.965
SK-ES-1, 1.111 µM | 1
SK-ES-1, 3.333 µM | 0.978
SK-ES-1, 10 µM | 0.983
SK-LMS-1, 0.00017 µM | 1.01
SK-LMS-1, 0.00051 µM | 1.01
SK-LMS-1, 0.00152 µM | 1.033
SK-LMS-1, 0.00457 µM | 1.04
SK-LMS-1, 0.01372 µM | 1.04
SK-LMS-1, 0.04115 µM | 1.02
SK-LMS-1, 0.1235 µM | 1.03
SK-LMS-1, 0.3704 µM | 0.968
SK-LMS-1, 1.111 µM | 0.997
SK-LMS-1, 3.333 µM | 0.968
SK-LMS-1, 10 µM | 0.954
SW872, 0.00017 µM | 1.03
SW872, 0.00051 µM | 1.04
SW872, 0.00152 µM | 1.04
SW872, 0.00457 µM | 1.052
SW872, 0.01372 µM | 1.06
SW872, 0.04115 µM | 1.03
SW872, 0.1235 µM | 1.03
SW872, 0.3704 µM | 1.04
SW872, 1.111 µM | 1.05
SW872, 3.333 µM | 1.047
SW872, 10 µM | 1.04
SW982, 0.00017 µM | 1.02
SW982, 0.00051 µM | 0.981
SW982, 0.00152 µM | 0.987
SW982, 0.00457 µM | 1
SW982, 0.01372 µM | 0.996
SW982, 0.04115 µM | 1.01
SW982, 0.1235 µM | 0.984
SW982, 0.3704 µM | 0.966
SW982, 1.111 µM | 0.975
SW982, 3.333 µM | 0.982
SW982, 10 µM | 0.971
SW1353, 0.00017 µM | 0.966
SW1353, 0.00051 µM | 0.94
SW1353, 0.00152 µM | 0.976
SW1353, 0.00457 µM | 0.935
SW1353, 0.01372 µM | 0.976
SW1353, 0.04115 µM | 0.972
SW1353, 0.1235 µM | 0.949
SW1353, 0.3704 µM | 0.98
SW1353, 1.111 µM | 0.929
SW1353, 3.333 µM | 0.973
SW1353, 10 µM | 0.972
VA-ES-BJ, 0.00017 µM | 1.03
VA-ES-BJ, 0.00051 µM | 1.02
VA-ES-BJ, 0.00152 µM | 1
VA-ES-BJ, 0.00457 µM | 1.03
VA-ES-BJ, 0.01372 µM | 1.04
VA-ES-BJ, 0.04115 µM | 1.02
VA-ES-BJ, 0.1235 µM | 1.043
VA-ES-BJ, 0.3704 µM | 1.003
VA-ES-BJ, 1.111 µM | 1.01
VA-ES-BJ, 3.333 µM | 1.03
VA-ES-BJ, 10 µM | 0.988

From the supplement of paper PMC10883282
